{"source": "patent US20020137929A1", "about": "“1 - (3-heterocyclylphenyl) isothiourea, -isourea, -guanidine and -amidine herbicidal agents” (Intellectual Property Department, BASF Aktiengesellschaft, priority 1998, published 2002)", "key": {"[1]": {"test_system": "TRZAWR (Wheat, Winter, cv Riband)", "assay": "Preemergence herbicidal evaluation", "assay_type": "in vivo, Triticum aestivum", "details": "rated 4-5 weeks after treatment", "how_it_was_run": "(§1)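 Greenhouse preemergence test: seed-soil mix sown on ~1 inch soil; aqueous acetone spray at equivalent of ~0.0156–0.500 kg/ha; greenhouse-held and watered; scored 0–9 visually at 4–5 weeks.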"}, "CYPIR (Rice Flatsedge)": {"test_system": "CYPIR (Rice Flatsedge)", "assay": "Preemergence weed control under flooded paddy conditions", "assay_type": "in vivo, Cyperus iria", "details": "rated 3-4 weeks after treatment", "how_it_was_run": "(§2)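 Seeds or propagules sown in silt loam kept flooded 1.5-3 cm; compounds in 50/50 acetone/water pipetted into flood water at about 0.0313 to 0.500 kg/ha. Greenhouse; visual 0-9 rating versus untreated control 3-4 weeks after treatment.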"}, "[2]": {"test_system": "IPOHE (Morningglory, Ivyleaf)", "assay": "Preemergence herbicidal evaluation", "assay_type": "in vivo, Ipomoea hederacea", "details": "rated 4-5 weeks after treatment", "how_it_was_run": "as §1"}, "ORYSAT (Rice, Tebonnet)": {"test_system": "ORYSAT (Rice, Tebonnet)", "assay": "Preemergence herbicidal evaluation", "assay_type": "in vivo, Oryza sativa, (L.) Tebonnet", "details": "rated 4-5 weeks after treatment", "how_it_was_run": "as §1"}, "CYPSE (Flatsedge) [3]": {"test_system": "CYPSE (Flatsedge)", "assay": "Preemergence weed control under flooded paddy conditions", "assay_type": "in vivo, Cyperus serotinus", "details": "rated 3-4 weeks after treatment", "how_it_was_run": "as §2"}, "ZEAMX (Corn, Field) [4]": {"test_system": "ZEAMX (Corn, Field)", "assay": "Preemergence herbicidal evaluation", "assay_type": "in vivo, Zea mays", "details": "rated 4-5 weeks after treatment", "how_it_was_run": "as §1"}, "CASOB (Sicklepod)": {"test_system": "CASOB (Sicklepod)", "assay": "Postemergence herbicidal evaluation", "assay_type": "in vivo, Cassia obtusifolia", "details": "postemergence", "how_it_was_run": "(§3)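 Young plants, roughly two weeks from seeding, receive the active ingredient as a sprayed dispersion (acetone/water 50/50, 0.5% TWEEN 20) at 40 psi. Doses span about 0.0156 to 0.500 kg/ha. A visual score from 0 to 9 compares treated with control plants four to five weeks on.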"}, "GALAP (Galium)": {"test_system": "GALAP (Galium)", "assay": "Postemergence herbicidal evaluation", "assay_type": "in vivo, Galium aparine", "details": "postemergence", "how_it_was_run": "as §3"}, "CYPSE (Flatsedge) [5]": {"test_system": "CYPSE (Flatsedge)", "assay": "Postemergence weed control under flooded paddy conditions", "assay_type": "in vivo, Cyperus serotinus", "details": "postemergence weeds, rated 3 to 4 weeks after treatment", "how_it_was_run": "(§4)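 With weeds 3 to 5 cm tall and rice at the 1.5 to 2.5 leaf stage, containers were flooded and water held 1.5 to 3 cm above soil. Compounds in 50/50 v/v aqueous/acetone went into the flood water at about 0.0313 to 0.500 kg/ha a.i. Effects were visually rated 0–9 against controls after three to four weeks in the greenhouse.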"}, "[6]": {"test_system": "CHEAL (Lambsquarters, Common)", "assay": "Preemergence herbicidal evaluation", "assay_type": "in vivo, Chenopodium album", "details": "rated 4-5 weeks after treatment", "how_it_was_run": "as §1"}, "[7]": {"test_system": "ECHORC (Watergrass (Calif.))", "assay": "Preemergence weed control under flooded paddy conditions", "assay_type": "in vivo, Echinochloa oryzoides", "details": "rated 3-4 weeks after treatment", "how_it_was_run": "as §2"}, "AMBEL (Ragweed, Common)": {"test_system": "AMBEL (Ragweed, Common)", "assay": "Preemergence herbicidal evaluation", "assay_type": "in vivo, Ambrosia artemisifolia", "details": "rated 4-5 weeks after treatment", "how_it_was_run": "as §1"}, "ZEAMX (Corn, Field) [8]": {"test_system": "ZEAMX (Corn, Field)", "assay": "Postemergence herbicidal evaluation", "assay_type": "in vivo, Zea mays", "details": "postemergence", "how_it_was_run": "as §3"}, "[9]": {"test_system": "ECHORC (Watergrass (Calif.))", "assay": "Postemergence weed control under flooded paddy conditions", "assay_type": "in vivo, Echinochloa oryzoides", "details": "postemergence weeds, rated 3 to 4 weeks after treatment", "how_it_was_run": "as §4"}}, "data": [{"smiles": "C=CCN1C(=O)C(CC(=O)OC(C)C)SC1=Nc1cc(-n2c(=O)cc(C(F)(F)F)n(C)c2=O)c(F)cc1Cl", "note": "(centres unmarked) [Compound 66, Isopropyl 3-allyl-2-{{2-chloro-5-[3,6-dihydro-3-methyl-2,6-dioxo-4-(trifluoromethyl)-1(2H)-pyrimidinyl]-4-fluorophenyl}imino}-4-oxo-5-thiazolidineacetate]", "values": [{"measurement": "Preemergence herbicidal rating TRZAWR", "setting": "[1]; rate 0.0156 kg/ha", "result": 0.0}, {"measurement": "Preemergence herbicidal rating TRZAWR", "setting": "[1]; rate 0.0313 kg/ha", "result": 0.0}, {"measurement": "Preemergence herbicidal rating TRZAWR", "setting": "[1]; rate 0.0625 kg/ha", "result": 0.5}, {"measurement": "Preemergence herbicidal rating TRZAWR", "setting": "[1]; rate 0.1250 kg/ha", "result": 0.5}, {"measurement": "Preemergence herbicidal rating TRZAWR", "setting": "[1]; rate 0.2500 kg/ha", "result": 1.0}, {"measurement": "Preemergence herbicidal rating TRZAWR", "setting": "[1]; rate 0.5000 kg/ha", "result": 4.0}, {"measurement": "CYPIR herbicidal effect rating", "setting": "CYPIR (Rice Flatsedge); 0.0313 kg/ha", "result": 6.0}, {"measurement": "CYPIR herbicidal effect rating", "setting": "CYPIR (Rice Flatsedge); 0.0625 kg/ha", "result": 6.0}, {"measurement": "CYPIR herbicidal effect rating", "setting": "CYPIR (Rice Flatsedge); 0.1250 kg/ha", "result": 7.0}, {"measurement": "CYPIR herbicidal effect rating", "setting": "CYPIR (Rice Flatsedge); 0.2500 kg/ha", "result": 7.0}, {"measurement": "Preemergence herbicidal rating IPOHE", "setting": "[2]; rate 0.0156 kg/ha", "result": 0.0}, {"measurement": "Preemergence herbicidal rating IPOHE", "setting": "[2]; rate 0.0313 kg/ha", "result": 0.0}, {"measurement": "Preemergence herbicidal rating IPOHE", "setting": "[2]; rate 0.0625 kg/ha", "result": 0.5}, {"measurement": "Preemergence herbicidal rating IPOHE", "setting": "[2]; rate 0.1250 kg/ha", "result": 3.0}, {"measurement": "Preemergence herbicidal rating IPOHE", "setting": "[2]; rate 0.2500 kg/ha", "result": 6.0}, {"measurement": "Preemergence herbicidal rating IPOHE", "setting": "[2]; rate 0.5000 kg/ha", "result": 9.0}, {"measurement": "Preemergence herbicidal rating ORYSAT", "setting": "ORYSAT (Rice, Tebonnet); rate 0.0156 kg/ha", "result": 0.0}, {"measurement": "Preemergence herbicidal rating ORYSAT", "setting": "ORYSAT (Rice, Tebonnet); rate 0.0313 kg/ha", "result": 0.0}, {"measurement": "Preemergence herbicidal rating ORYSAT", "setting": "ORYSAT (Rice, Tebonnet); rate 0.0625 kg/ha", "result": 0.5}, {"measurement": "Preemergence herbicidal rating ORYSAT", "setting": "ORYSAT (Rice, Tebonnet); rate 0.1250 kg/ha", "result": 0.5}, {"measurement": "Preemergence herbicidal rating ORYSAT", "setting": "ORYSAT (Rice, Tebonnet); rate 0.2500 kg/ha", "result": 2.5}, {"measurement": "Preemergence herbicidal rating ORYSAT", "setting": "ORYSAT (Rice, Tebonnet); rate 0.5000 kg/ha", "result": 8.0}, {"measurement": "CYPSE herbicidal effect rating", "setting": "CYPSE (Flatsedge) [3]; 0.0313 kg/ha", "result": 0.0}, {"measurement": "CYPSE herbicidal effect rating", "setting": "CYPSE (Flatsedge) [3]; 0.0625 kg/ha", "result": 0.0}, {"measurement": "CYPSE herbicidal effect rating", "setting": "CYPSE (Flatsedge) [3]; 0.1250 kg/ha", "result": 4.0}, {"measurement": "CYPSE herbicidal effect rating", "setting": "CYPSE (Flatsedge) [3]; 0.2500 kg/ha", "result": 4.0}, {"measurement": "Preemergence herbicidal rating ZEAMX", "setting": "ZEAMX (Corn, Field) [4]; rate 0.0156 kg/ha", "result": 0.5}, {"measurement": "Preemergence herbicidal rating ZEAMX", "setting": "ZEAMX (Corn, Field) [4]; rate 0.0313 kg/ha", "result": 0.0}, {"measurement": "Preemergence herbicidal rating ZEAMX", "setting": "ZEAMX (Corn, Field) [4]; rate 0.0625 kg/ha", "result": 0.5}, {"measurement": "Preemergence herbicidal rating ZEAMX", "setting": "ZEAMX (Corn, Field) [4]; rate 0.1250 kg/ha", "result": 1.0}, {"measurement": "Preemergence herbicidal rating ZEAMX", "setting": "ZEAMX (Corn, Field) [4]; rate 0.2500 kg/ha", "result": 2.5}, {"measurement": "Preemergence herbicidal rating ZEAMX", "setting": "ZEAMX (Corn, Field) [4]; rate 0.5000 kg/ha", "result": 7.0}, {"measurement": "CASOB herbicidal rating", "setting": "CASOB (Sicklepod); rate 0.0158 kg/ha", "result": 0.0}, {"measurement": "CASOB herbicidal rating", "setting": "CASOB (Sicklepod); rate 0.0313 kg/ha", "result": 0.0}, {"measurement": "CASOB herbicidal rating", "setting": "CASOB (Sicklepod); rate 0.0625 kg/ha", "result": 3.0}, {"measurement": "CASOB herbicidal rating", "setting": "CASOB (Sicklepod); rate 0.1250 kg/ha", "result": 6.0}, {"measurement": "GALAP herbicidal rating", "setting": "GALAP (Galium); rate 0.0158 kg/ha", "result": 2.0}, {"measurement": "GALAP herbicidal rating", "setting": "GALAP (Galium); rate 0.0313 kg/ha", "result": 3.0}, {"measurement": "GALAP herbicidal rating", "setting": "GALAP (Galium); rate 0.0625 kg/ha", "result": 4.0}, {"measurement": "GALAP herbicidal rating", "setting": "GALAP (Galium); rate 0.1250 kg/ha", "result": 9.0}, {"measurement": "Herbicidal rating CYPSE", "setting": "CYPSE (Flatsedge) [5]; Rate 0.0313 kg/ha", "result": 0.0}, {"measurement": "Herbicidal rating CYPSE", "setting": "CYPSE (Flatsedge) [5]; Rate 0.0625 kg/ha", "result": 0.0}, {"measurement": "Herbicidal rating CYPSE", "setting": "CYPSE (Flatsedge) [5]; Rate 0.1250 kg/ha", "result": 4.0}, {"measurement": "Herbicidal rating CYPSE", "setting": "CYPSE (Flatsedge) [5]; Rate 0.2500 kg/ha", "result": 4.0}, {"measurement": "Preemergence herbicidal rating CHEAL", "setting": "[6]; rate 0.0156 kg/ha", "result": 4.0}, {"measurement": "Preemergence herbicidal rating CHEAL", "setting": "[6]; rate 0.0313 kg/ha", "result": 9.0}, {"measurement": "Preemergence herbicidal rating CHEAL", "setting": "[6]; rate 0.0625 kg/ha", "result": 9.0}, {"measurement": "Preemergence herbicidal rating CHEAL", "setting": "[6]; rate 0.1250 kg/ha", "result": 9.0}, {"measurement": "Preemergence herbicidal rating CHEAL", "setting": "[6]; rate 0.2500 kg/ha", "result": 9.0}, {"measurement": "Preemergence herbicidal rating CHEAL", "setting": "[6]; rate 0.5000 kg/ha", "result": 9.0}, {"measurement": "ECHORC herbicidal effect rating", "setting": "[7]; 0.0313 kg/ha", "result": 7.0}, {"measurement": "ECHORC herbicidal effect rating", "setting": "[7]; 0.0625 kg/ha", "result": 7.0}, {"measurement": "ECHORC herbicidal effect rating", "setting": "[7]; 0.1250 kg/ha", "result": 9.0}, {"measurement": "ECHORC herbicidal effect rating", "setting": "[7]; 0.2500 kg/ha", "result": 9.0}, {"measurement": "Preemergence herbicidal rating AMBEL", "setting": "AMBEL (Ragweed, Common); rate 0.0156 kg/ha", "result": 0.5}, {"measurement": "Preemergence herbicidal rating AMBEL", "setting": "AMBEL (Ragweed, Common); rate 0.0313 kg/ha", "result": 1.0}, {"measurement": "Preemergence herbicidal rating AMBEL", "setting": "AMBEL (Ragweed, Common); rate 0.0625 kg/ha", "result": 3.0}, {"measurement": "Preemergence herbicidal rating AMBEL", "setting": "AMBEL (Ragweed, Common); rate 0.1250 kg/ha", "result": 9.0}, {"measurement": "Preemergence herbicidal rating AMBEL", "setting": "AMBEL (Ragweed, Common); rate 0.2500 kg/ha", "result": 9.0}, {"measurement": "Preemergence herbicidal rating AMBEL", "setting": "AMBEL (Ragweed, Common); rate 0.5000 kg/ha", "result": 9.0}, {"measurement": "ZEAMX herbicidal rating", "setting": "ZEAMX (Corn, Field) [8]; rate 0.0158 kg/ha", "result": 7.0}, {"measurement": "ZEAMX herbicidal rating", "setting": "ZEAMX (Corn, Field) [8]; rate 0.0313 kg/ha", "result": 8.5}, {"measurement": "ZEAMX herbicidal rating", "setting": "ZEAMX (Corn, Field) [8]; rate 0.0625 kg/ha", "result": 9.0}, {"measurement": "ZEAMX herbicidal rating", "setting": "ZEAMX (Corn, Field) [8]; rate 0.1250 kg/ha", "result": 9.0}, {"measurement": "Herbicidal rating ECHORC", "setting": "[9]; Rate 0.0313 kg/ha", "result": 7.0}, {"measurement": "Herbicidal rating ECHORC", "setting": "[9]; Rate 0.0625 kg/ha", "result": 7.0}, {"measurement": "Herbicidal rating ECHORC", "setting": "[9]; Rate 0.1250 kg/ha", "result": 9.0}, {"measurement": "Herbicidal rating ECHORC", "setting": "[9]; Rate 0.2500 kg/ha", "result": 9.0}]}]}
